Measured values published in US9447038B2 (SANOFI, priority 2012, dated 2016).
Counter-ions that a name gives are not always drawn. Like-named read-outs stand apart in the source and are kept apart here.

Biological target: human CXCR3-A receptor (Homo sapiens (Human), UniProt P49682)
Assay: 125I-CXCL10 competition radioligand binding assay;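 also: One-hour incubation of membranes with tracer, bound radioligand separated by glass fibre filtration, IC50 derived from four-parameter nonlinear fit of competition curves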
[1] = displacement of 125I-CXCL10 from membranes of CHO cells expressing human recombinant CXCR3-A

Sequence of human CXCR3-A receptor (P49682 whole entry): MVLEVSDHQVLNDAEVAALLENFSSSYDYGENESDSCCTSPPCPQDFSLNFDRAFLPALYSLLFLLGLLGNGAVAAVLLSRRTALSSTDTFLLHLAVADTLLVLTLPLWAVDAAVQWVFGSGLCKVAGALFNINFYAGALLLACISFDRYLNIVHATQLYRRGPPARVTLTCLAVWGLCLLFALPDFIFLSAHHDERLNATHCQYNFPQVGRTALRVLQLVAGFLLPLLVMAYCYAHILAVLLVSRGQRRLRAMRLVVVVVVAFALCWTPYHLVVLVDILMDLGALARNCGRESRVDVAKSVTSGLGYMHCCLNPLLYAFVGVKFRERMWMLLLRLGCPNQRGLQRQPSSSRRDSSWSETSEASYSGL

| IC50 [1] [nM] | IC50 [nM] | SMILES |
| --- | --- | --- |
| 120 | – | COc1cc(CN(CC2CCCC2)C(CC(=O)O)c2ccc(Cl)cc2Cl)ccc1OCCN1C(=O)CCC1=O (stereo not drawn) [Example 3, 3-(Cyclopentylmethyl-{4-[2-(2,5-dioxo-pyrrolidin-1-yl)-ethoxy]-3-methoxy-benzyl}-amino)-3-(2,4-dichloro-phenyl)-propionic acid] |
| 66 | – | CC(C)CN(Cc1ccc(OCCN2C(=O)CCC2=O)c(F)c1)[C@@H](CC(=O)O)c1ccc(Cl)c(F)c1 [Example 21, (S)-3-(4-Chloro-3-fluoro-phenyl)-3-({4-[2-(2,5-dioxo-pyrrolidin-1-yl)-ethoxy]-3-fluoro-benzyl}-isobutyl-amino)-propionic acid; hydrochloride] |
| 531 | – | CC(C)CN(Cc1ccc(OCCN2C(=O)CCC2=O)c(F)c1)[C@H](CC(=O)O)c1ccc(Cl)c(F)c1 [Example 22, (R)-3-(4-Chloro-3-fluoro-phenyl)-3-({4-[2-(2,5-dioxo-pyrrolidin-1-yl)-ethoxy]-3-fluoro-benzyl}-isobutyl-amino)-propionic acid; hydrochloride] |
| 39 | – | Cc1cc(CN(CC2CC2)[C@@H](CC(=O)O)c2ccc(Cl)c(Cl)c2)ccc1OCCN1C(=O)CCC1=O [Example 26, (S)-3-(Cyclopropylmethyl-{4-[2-(2,5-dioxo-pyrrolidin-1-yl)-ethoxy]-3-methyl-benzyl}-amino)-3-(3,4-dichloro-phenyl)-propionic acid] |
| 86 | – | Cc1cc(CN(CC2CC2)[C@H](CC(=O)O)c2ccc(Cl)c(Cl)c2)ccc1OCCN1C(=O)CCC1=O [Example 27, (R)-3-(Cyclopropylmethyl-{4-[2-(2,5-dioxo-pyrrolidin-1-yl)-ethoxy]-3-methyl-benzyl}-amino)-3-(3,4-dichloro-phenyl)-propionic acid] |
| 55 | – | Cc1cc(CN(CC2CCCCC2)[C@@H](CC(=O)O)c2ccc(Cl)cc2)ccc1OCCN1C(=O)CN(C)C1=O [Example 30, (S)-3-(4-Chloro-phenyl)-3-(cyclohexylmethyl-{3-methyl-4-[2-(3-methyl-2,5-dioxo-imidazolidin-1-yl)-ethoxy]-benzyl}-amino)-propionic acid] |
| 416 | – | Cc1cc(CN(CC2CCCCC2)[C@H](CC(=O)O)c2ccc(Cl)cc2)ccc1OCCN1C(=O)CN(C)C1=O [Example 31, (R)-3-(4-Chloro-phenyl)-3-(cyclohexylmethyl-{3-methyl-4-[2-(3-methyl-2,5-dioxo-imidazolidin-1-yl)-ethoxy]-benzyl}-amino)-propionic acid] |
| 69 | – | Cc1cc(CN(CC2CCCC2)[C@@H](CC(=O)O)c2ccc(Cl)c(F)c2)ccc1OCCN1C(=O)CN(C)C1=O [Example 32, (S)-3-(4-Chloro-3-fluoro-phenyl)-3-(cyclopentylmethyl-{3-methyl-4-[2-(3-methyl-2,5-dioxo-imidazolidin-1-yl)-ethoxy]-benzyl}-amino)-propionic acid] |
| 86 | – | Cc1cc(CN(CC2CCCC2)[C@H](CC(=O)O)c2ccc(Cl)c(F)c2)ccc1OCCN1C(=O)CN(C)C1=O [Example 33, (R)-3-(4-Chloro-3-fluoro-phenyl)-3-(cyclopentylmethyl-{3-methyl-4-[2-(3-methyl-2,5-dioxo-imidazolidin-1-yl)-ethoxy]-benzyl}-amino)-propionic acid] |
| 83 | – | Cc1cc(CN(CC2CCCCC2)[C@@H](CC(=O)O)c2ccc(Cl)c(F)c2)ccc1OCCN1C(=O)CN(C)C1=O [Example 34, (S)-3-(4-Chloro-3-fluoro-phenyl)-3-(cyclohexylmethyl-{3-methyl-4-[2-(3-methyl-2,5-dioxo-imidazolidin-1-yl)-ethoxy]-benzyl}-amino)-propionic acid] |
| 75 | – | Cc1cc(CN(CC2CCCCC2)[C@H](CC(=O)O)c2ccc(Cl)c(F)c2)ccc1OCCN1C(=O)CN(C)C1=O [Example 35, (R)-3-(4-Chloro-3-fluoro-phenyl)-3-(cyclohexylmethyl-{3-methyl-4-[2-(3-methyl-2,5-dioxo-imidazolidin-1-yl)-ethoxy]-benzyl}-amino)-propionic acid] |
| 20 | – | COc1cc(CN(CC2CC2)C(CC(=O)O)c2ccc(Cl)cc2)ccc1OCCN1C(=O)CCC1=O (stereo not drawn) [Example 36, 3-(4-Chloro-phenyl)-3-(cyclopropylmethyl-{4-[2-(2,5-dioxo-pyrrolidin-1-yl)-ethoxy]-3-methoxy-benzyl}-amino)-propionic acid] |
| 20 | – | CCCN(Cc1ccc(OCCN2C(=O)CCC2=O)c(OC)c1)C(CC(=O)O)c1ccc(Cl)cc1 (stereo not drawn) [Example 37, 3-(4-Chloro-phenyl)-3-({4-[2-(2,5-dioxo-pyrrolidin-1-yl)-ethoxy]-3-methoxy-benzyl}-propyl-amino)-propionic acid] |
| – | 45 | CCCCN(Cc1ccc(OCCN2C(=O)CCC2=O)c(OC)c1)C(CC(=O)O)c1ccc(Cl)cc1 (stereo not drawn) [Example 38, 3-(Butyl-{4-[2-(2,5-dioxo-pyrrolidin-1-yl)-ethoxy]-3-methoxy-benzyl}-amino)-3-(4-chloro-phenyl)-propionic acid] |
| 71 | – | COc1cc(CN(CC2CCCC2)C(CC(=O)O)c2ccc(Cl)cc2)ccc1OCCN1C(=O)CCC1=O (stereo not drawn) [Example 39, 3-(4-Chloro-phenyl)-3-(cyclopentylmethyl-{4-[2-(2,5-dioxo-pyrrolidin-1-yl)-ethoxy]-3-methoxy-benzyl}-amino)-propionic acid] |
| 40 | – | COc1cc(CN(CC2CCCCC2)C(CC(=O)O)c2ccc(Cl)cc2)ccc1OCCN1C(=O)CCC1=O (stereo not drawn) [Example 40, 3-(4-Chloro-phenyl)-3-(cyclohexylmethyl-{4-[2-(2,5-dioxo-pyrrolidin-1-yl)-ethoxy]-3-methoxy-benzyl}-amino)-propionic acid] |
| 107 | – | CCCN(Cc1ccc(OCCN2C(=O)CCC2=O)c(OC)c1)C(CC(=O)O)c1ccc(Cl)c(F)c1 (stereo not drawn) [Example 41, 3-(4-Chloro-3-fluoro-phenyl)-3-({4-[2-(2,5-dioxo-pyrrolidin-1-yl)-ethoxy]-3-methoxy-benzyl}-propyl-amino)-propionic acid] |
| 23 | – | CCCCN(Cc1ccc(OCCN2C(=O)CCC2=O)c(OC)c1)C(CC(=O)O)c1ccc(Cl)c(F)c1 (stereo not drawn) [Example 43, 3-(Butyl-{4-[2-(2,5-dioxo-pyrrolidin-1-yl)-ethoxy]-3-methoxy-benzyl}-amino)-3-(4-chloro-3-fluoro-phenyl)-propionic acid] |
| 43 | – | COc1cc(CN(CC2CCCCC2)C(CC(=O)O)c2ccc(Cl)c(F)c2)ccc1OCCN1C(=O)CCC1=O (stereo not drawn) [Example 44, 3-(4-Chloro-3-fluoro-phenyl)-3-(cyclohexylmethyl-{4-[2-(2,5-dioxo-pyrrolidin-1-yl)-ethoxy]-3-methoxy-benzyl}-amino)-propionic acid] |
| 66 | – | COc1cc(CN(CC2CC2)C(CC(=O)O)c2ccc(Cl)c(Cl)c2)ccc1OCCN1C(=O)CCC1=O (stereo not drawn) [Example 45, 3-(Cyclopropylmethyl-{4-[2-(2,5-dioxo-pyrrolidin-1-yl)-ethoxy]-3-methoxy-benzyl}-amino)-3-(3,4-dichloro-phenyl)-propionic acid] |
| 118 | – | CCCN(Cc1ccc(OCCN2C(=O)CCC2=O)c(OC)c1)C(CC(=O)O)c1ccc(Cl)c(Cl)c1 (stereo not drawn) [Example 46, 3-(3,4-Dichloro-phenyl)-3-({4-[2-(2,5-dioxo-pyrrolidin-1-yl)-ethoxy]-3-methoxy-benzyl}-propyl-amino)-propionic acid] |
| 61 | – | CCCCN(Cc1ccc(OCCN2C(=O)CCC2=O)c(OC)c1)C(CC(=O)O)c1ccc(Cl)c(Cl)c1 (stereo not drawn) [Example 48, 3-(Butyl-{4-[2-(2,5-dioxo-pyrrolidin-1-yl)-ethoxy]-3-methoxy-benzyl}-amino)-3-(3,4-dichloro-phenyl)-propionic acid] |
| 61 | – | COc1cc(CN(CC2CCCC2)C(CC(=O)O)c2ccc(Cl)c(Cl)c2)ccc1OCCN1C(=O)CCC1=O (stereo not drawn) [Example 49, 3-(Cyclopentylmethyl-{4-[2-(2,5-dioxo-pyrrolidin-1-yl)-ethoxy]-3-methoxy-benzyl}-amino)-3-(3,4-dichloro-phenyl)-propionic acid] |
| 98 | – | COc1cc(CN(CC2CCCCC2)C(CC(=O)O)c2ccc(Cl)c(Cl)c2)ccc1OCCN1C(=O)CCC1=O (stereo not drawn) [Example 50, 3-(Cyclohexylmethyl-{4-[2-(2,5-dioxo-pyrrolidin-1-yl)-ethoxy]-3-methoxy-benzyl}-amino)-3-(3,4-dichloro-phenyl)-propionic acid] |
| 133 | – | O=C(O)CC(c1ccc(Cl)cc1)N(Cc1ccc(OCCN2C(=O)CCC2=O)c(F)c1)CC1CC1 (stereo not drawn) [Example 51, 3-(4-Chloro-phenyl)-3-(cyclopropylmethyl-{4-[2-(2,5-dioxo-pyrrolidin-1-yl)-ethoxy]-3-fluoro-benzyl}-amino)-propionic acid] |
| 990 | – | CCCN(Cc1ccc(OCCN2C(=O)CCC2=O)c(F)c1)[C@H](CC(=O)O)c1ccc(Cl)cc1 [Example 52, (R)-3-(4-Chloro-phenyl)-3-({4-[2-(2,5-dioxo-pyrrolidin-1-yl)-ethoxy]-3-fluoro-benzyl}-propyl-amino)-propionic acid] |
| 125 | – | CC(C)CN(Cc1ccc(OCCN2C(=O)CCC2=O)c(F)c1)C(CC(=O)O)c1ccc(Cl)cc1 (stereo not drawn) [Example 53, 3-(4-Chloro-phenyl)-3-({4-[2-(2,5-dioxo-pyrrolidin-1-yl)-ethoxy]-3-fluoro-benzyl}-isobutyl-amino)-propionic acid] |
| 306 | – | CCCCN(Cc1ccc(OCCN2C(=O)CCC2=O)c(F)c1)C(CC(=O)O)c1ccc(Cl)cc1 (stereo not drawn) [Example 54, 3-(Butyl-{4-[2-(2,5-dioxo-pyrrolidin-1-yl)-ethoxy]-3-fluoro-benzyl}-amino)-3-(4-chloro-phenyl)-propionic acid] |
| 294 | – | O=C(O)C[C@H](c1ccc(Cl)cc1)N(Cc1ccc(OCCN2C(=O)CCC2=O)c(F)c1)CC1CCC1 [Example 55, (R)-3-(4-Chloro-phenyl)-3-(cyclobutylmethyl-{4-[2-(2,5-dioxo-pyrrolidin-1-yl)-ethoxy]-3-fluoro-benzyl}-amino)-propionic acid] |
| 52 | – | O=C(O)CC(c1ccc(Cl)cc1)N(Cc1ccc(OCCN2C(=O)CCC2=O)c(F)c1)CC1CCCC1 (stereo not drawn) [Example 56, 3-(4-Chloro-phenyl)-3-(cyclopentylmethyl-{4-[2-(2,5-dioxo-pyrrolidin-1-yl)-ethoxy]-3-fluoro-benzyl}-amino)-propionic acid] |
